Consider 9 compounds from patent publication US6451786B1 (Cephalon, Inc., priority 1997, dated 2002).

The target of test [1] is T1, baculovirus-expressed human trkA cytoplasmic domain (Homo sapiens, UniProt P04629).
T1 construct: baculovirus-expressed human trkA cytoplasmic domain; made in house; host or cells: baculovirus expression system (insect cells)
Kind of test: Inhibition of trkA kinase activity (ELISA-based assay). Particulars: 40 μM ATP, read-out: trk IC50. It counts as biochemical. How it is done: An antibody to phosphotyrosine (UBI) was then added, followed by a secondary enzyme-conjugated antibody, alkaline phosphatase-labelled goat anti-mouse IgG (Bio-Rad). The activity of the bound enzyme was measured using an amplified detection system (Gibco-BRL). Inhibition data were analyzed using the sigmoidal dose-response (variable slope) equation in GraphPad Prism.
(An ELISA detects its analyte on a solid surface through an enzyme-linked reagent.)

The target in test [2] is T2, protein kinase C (UBI; mixed isozymes of a, b, g).
T2 construct: 1.5 ng protein kinase C (UBI)
The test can be described thus: Inhibition of protein kinase C activity (Multiscreen TCA in-plate assay). It counts as biochemical. Particulars: read-out: PKC IC50. How it is done: Assays were performed in 96-well Multiscreen-DP plates (Millipore). […] The reaction was allowed to proceed for 10 min at 37° C. […] The IC50 values were calculated by fitting the data to the sigmoidal dose-response (variable slope) equation in GraphPad Prism.

The subject of test [3] is dissociated rat embryonic spinal cord culture (ChAT activity). Kind of test: Enhancement of spinal cord ChAT activity in dissociated rat embryonic spinal cord culture. It counts as cell-based. Particulars: ChAT measured after 2 days in vitro. The text has this: ChAT was employed a biochemical marker for functional cholinergic neurons. CHAT activity has been used to study the effects of neurotrophins (e.g., NGF or NT-3) on the survival and/or function of cholinergic neurons. The ChAT assay also has been used as an indication of the regulation of ChAT levels within cholinergic neurons. […] In these assays, a compound was directly added to a dissociated spinal cord culture. […] Neurochem.

The target of test [4] is T3, trkA (Homo sapiens, UniProt P04629).
T3 construct: expressed in transfected cells; host or cells: NIH3T3 cells
It counts as cell-based. Particulars: NIH3T3 cells; for inhibition at 0.001 µM: 1 nM compound, read-out: Inhibition Score 1 nM; for inhibition at 0.001 µM / inhibition at 0.01 µM / inhibition at 0.05 µM / inhibition at 0.1 µM: NGF 10 ng/ml, percent decrease in trk protein band; for inhibition at 0.01 µM: 10 nM compound, read-out: Inhibition Score 10 nM; for inhibition at 0.05 µM: 50 nM compound, read-out: Inhibition Score 50 nM; for inhibition at 0.1 µM: 100 nM compound, read-out: Inhibition Score 100 nM.
Experimental: NIH3T3 cells transfected with trkA were grown in 100 mm dishes. […] NGF (Harlan/Bioproducts for Science) was then added to the cells at a concentration of 10 ng/ml for 5 minutes. Cells were lysed in buffer containing detergent and protease inhibitors. Clarified cell lysates were normalized to protein using BCA method and immunoprecipitated with anti-trk antibody.
The immune complexes were collected on Protein A Sepharose beads (Sigma), separated by SDS polyacrylamide gel electrophoresis (SDS-PAGE), and transferred to a polyvinylidene difluoride (PVDF) membrane. The membrane was immunoblotted with anti-phosphotyrosine antibody (UBI), followed by incubation with horseradish peroxidase coupled goat anti-mouse IgG (Bio-Rad).. Phosphorylated proteins were visualized using ECL (Amersham).
The area of the trk protein band was measured and compared to NGF-stimulated control.

The subject of test [5] is rat spinal cord motoneurons. The test can be described thus: Survival assay using rat spinal cord motoneurons (calcein AM viability). It counts as cell-based. Particulars: cultures enriched for motoneurons, survival assessed after 4 days (FIG. 8). How it is done:
Spinal cords were dissected from Sprague-Dawley rat fetuses (Charles River Laboratories, Wilmington, Mass.) of embryonic age (E) 14.5-15. Cells from only the ventral portion of the spinal cord were dissociated, and further enriched for motoneurons by centrifugation on a 6.5% step metrizamide gradient, and were analyzed for purity by staining with low affinity neurotrophin receptor antibody (IgG-192, Boehringer-Mannheim). Cells were seeded onto 96-well plates previously coated with poly-1-ornithine and laminin (5 ug/ml each) at a density of 6×10^4 cells/cm^2 in chemically defined serum-free N2 medium (Bottenstein and Sato, 1979). To distinguish attachment from survival effects, 3,9-bis[(ethylthio)methyl]-K-252a (Kaneko et. al., J. Med. Chem 40:1863-1869, 1997) was added to cultures after an initial attachment period of 1-3 hours.
Neuronal survival was assessed after 4 days by calcein AM (Molecular Probes, Eugene, Oreg.) in a fluorimetric viability assay (Bozyczko-Coyne et. al., J. Neurosci. Meth. 50:205-216, 1993). […] The fluorescent signal was read using a plate-reading fluorimeter (Cytofluor 2350) (excitation=485 nm; emission=538 nm). […] Linearity of the fluorescence signal was verified for the concentration and incubation time for the range of cell densities. Microscopic counts of neurons correlated directly with relative fluorescence values.

T1 sequence (P04629 440-796 limits assumed): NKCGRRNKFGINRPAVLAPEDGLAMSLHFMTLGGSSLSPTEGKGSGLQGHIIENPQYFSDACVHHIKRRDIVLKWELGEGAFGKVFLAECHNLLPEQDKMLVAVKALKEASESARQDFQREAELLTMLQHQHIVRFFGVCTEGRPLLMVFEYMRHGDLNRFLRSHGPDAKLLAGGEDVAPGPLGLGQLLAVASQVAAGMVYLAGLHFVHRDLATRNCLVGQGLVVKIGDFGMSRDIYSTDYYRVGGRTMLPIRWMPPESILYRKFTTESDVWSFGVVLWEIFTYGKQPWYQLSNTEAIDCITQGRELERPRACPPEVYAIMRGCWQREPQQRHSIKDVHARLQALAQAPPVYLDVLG
T3 sequence (P04629 33-796, species assumed): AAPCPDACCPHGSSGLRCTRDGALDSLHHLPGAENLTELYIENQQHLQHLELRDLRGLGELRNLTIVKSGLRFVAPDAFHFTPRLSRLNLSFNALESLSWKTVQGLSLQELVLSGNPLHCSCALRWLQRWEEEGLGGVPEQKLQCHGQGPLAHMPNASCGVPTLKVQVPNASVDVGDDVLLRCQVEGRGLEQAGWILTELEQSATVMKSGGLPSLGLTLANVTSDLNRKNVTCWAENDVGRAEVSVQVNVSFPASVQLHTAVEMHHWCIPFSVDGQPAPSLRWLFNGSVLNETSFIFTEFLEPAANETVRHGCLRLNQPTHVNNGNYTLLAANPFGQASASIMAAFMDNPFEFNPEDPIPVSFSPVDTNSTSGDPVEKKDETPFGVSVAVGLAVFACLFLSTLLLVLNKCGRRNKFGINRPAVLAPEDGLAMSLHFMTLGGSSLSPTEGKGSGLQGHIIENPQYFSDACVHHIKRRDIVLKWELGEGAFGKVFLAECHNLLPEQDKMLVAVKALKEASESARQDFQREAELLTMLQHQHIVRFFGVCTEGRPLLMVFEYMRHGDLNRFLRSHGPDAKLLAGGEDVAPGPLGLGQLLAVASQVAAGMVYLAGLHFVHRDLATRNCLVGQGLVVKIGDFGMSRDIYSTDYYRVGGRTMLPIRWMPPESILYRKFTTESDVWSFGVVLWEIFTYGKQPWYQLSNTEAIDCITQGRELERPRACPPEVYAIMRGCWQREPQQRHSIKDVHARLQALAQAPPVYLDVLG

On to `C[C@]12OC(C[C@H]1CO)n1c3ccccc3c3c4c(c5c6ccccc6n2c5c31)CNC4=O` [Compound VI], for which the IC50 turned out to be 2 nM in test [1] and 95 nM in test [2]. Moreover, in test [3], the “Spinal Cord ChAT % control, Activity at 50 nM” value was less than 120 % control. For the same compound, the “Spinal Cord ChAT % control, Maximal Activity” value in test [3] is 125 % control.

As for `C[C@]12OC(C[C@@]1(O)CO)n1c3ccccc3c3c4c(c5c6ccccc6n2c5c31)CNC4=O` [Compound VII], in test [4], the inhibition at 0.001 µM fell in the range of 1 to 25%, the inhibition at 0.01 µM lay within 26 to 49%, the inhibition at 0.05 µM lay in the range of 76 to 100% and the inhibition at 0.1 µM fell in the range of 76 to 100%. Also, in test [2], the IC50 was found to be 79 nM. Further, the “Spinal Cord ChAT % control, Activity at 50 nM” value in test [3] is given as less than 120 % control.

Turning to `C[C@@]12C=C[C@@H](O1)n1c3ccccc3c3c4c(c5c6ccccc6n2c5c31)CNC4=O` [Compound XXIII], the IC50 in test [1] is 4 nM; in test [2] it was more than 1000 nM.

As for `C[C@]12OC(C[C@@]1(O)C(=O)O)n1c3ccccc3c3c4c(c5c6ccccc6n2c5c31)CNC4=O` [Compound XVI], the “survival of spinal cord motoneurons” value in test [5] is “significantly enhanced survival”.

Regarding `C[C@@]1(O)CC2O[C@]1(C)n1c3ccccc3c3c4c(c5c6ccccc6n2c5c31)C(=O)NC4` [Compound XXIX, reference compound], in test [4], the inhibition at 0.001 µM was in the range of 26 to 49%, the inhibition at 0.01 µM lay in the range of 50 to 75%, the inhibition at 0.05 µM was in the range of 50 to 75% and the inhibition at 0.1 µM was 50 to 75%. The “complete inhibition of trkA at 100 nM” value in test [4] (100 nM) is listed as “did not show complete inhibition”. For the same compound, in test [2], the IC50 turned out to be 310 nM.

Take `C[C@@]1(O)C[C@H]2O[C@]1(C)n1c3ccccc3c3c4c(c5c6ccccc6n2c5c31)C(=O)NC4` [Compound XXIX, reference compound]: the IC50 in test [1] came out at 7 nM.

Turning to `COC(=O)[C@]1(O)CC2O[C@]1(C)n1c3ccccc3c3c4c(c5c6ccccc6n2c5c31)C(=O)NC4` [Compound XIV, 3′-(R)-K-252a], in test [3], the “Spinal Cord ChAT % control, Activity at 50 nM” value stood at 147 % control and the “Spinal Cord ChAT % control, Maximal Activity” value turned out to be 195 % control.

With `C[C@]1(O)CC2O[C@]1(C)n1c3ccccc3c3c4c(c5c6ccccc6n2c5c31)C(=O)NC4` [Compound X], the IC50 in test [1] amounted to 2 nM. In test [4], the inhibition at 0.001 µM was 26 to 49%, the inhibition at 0.01 µM is 50 to 75%, the inhibition at 0.05 µM lay in the range of 76 to 100% and the inhibition at 0.1 µM lay within 76 to 100%. Further, the “concentration giving complete inhibition of trkA” value in test [4] is on record as less than 50 nM. Moreover, in test [4] (NGF-stimulated, read-out: IC50 for inhibiting trk in a whole cell preparation), the IC50 is less than 10 nM. In addition, the IC50 in test [2] was more than 1000 nM. Also, in test [3], the “Spinal Cord ChAT % control, Activity at 50 nM” value is less than 120 % control and the “Spinal Cord ChAT % control, Maximal Activity” value was 127 % control.

For the compound `C[C@]12OC(C[C@@]1(O)C(N)=O)n1c3ccccc3c3c4c(c5c6ccccc6n2c5c31)CNC4=O` [Compound XV], the IC50 in test [1] was found to be 21 nM. In test [3], the “Spinal Cord ChAT % control, Maximal Activity” value is listed as 129 % control.

As a reminder, the inhibition is the relative decrease from the control value, in per cent.
